The test deals with CEM cells HIV-1 protection, formazan growth assay. Nature of the test: NCI AIDS Antiviral Assay. Conditions: for pIC50: measured here: growth of uninfected CEM cells. The gist of the method:
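Screen of anti-HIV-1 activity in human CEM cells using a formazan-based growth measurement at five drug concentrations. Hits with 50% or greater protection were repeated, and confirmation required reproducible complete protection.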

The text below walks through data of PubChem BioAssay AID179 (DTP/NCI, 2004).

Structures are written as SMILES. pEC50, pIC50: −log10 of the molar value. The source made the active and inactive calls.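 The calls were made as follows: active = compounds giving half or more protection of infected cells from virus-caused growth loss, again on retest; inactive = the rest.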 Where a SMILES comes first, the peptide text is derived from it. The star is where a group is joined. Cbz = O=C(OCc1ccccc1)*; OSu = O=C1CCC(=O)N1O* Bounds are passed on as bounds.

In the case of `CC(=O)OCC1OC(Nc2ccc3nc(C)n(-c4ccccc4)c(=O)c3c2)C(OC(C)=O)C(OC(C)=O)C1OC(C)=O` (centres undefined), the pEC50 – broadly, the EC50 on a negative log10 scale, so that one unit is a factor of ten – is less than 4.00 and the pIC50 (commonly the negative decadic logarithm of the IC50, by convention in mol/L) is 4.21.
On to `COc1ccc(OCC(=O)O)c2c1CCCC2=O`, for which the result was inactive.
With `O=C(CCNC(=O)OCc1ccccc1)OCCCNC(=O)OCc1ccccc1`, the pEC50 was less than 3.70 and the negative logarithm of the IC50 (pIC50) is less than 3.70.
In the case of `Cc1ccc2c(c1)C1C(CO2)C(c2ccccc2)=NN1c1ccccc1` (centres undefined), the pEC50 was less than 3.98 and the negative-log IC50 (pIC50) is less than 3.98.
As for `COC(=O)c1cc(C(=CCCO)c2cc(Cl)c(OC)c(C(=O)OC)c2)cc(Cl)c1OC`, the pEC50 was less than 3.70 and the pIC50 was 4.61.
Regarding `O=c1c2ccccc2nc2sc(/N=C/C=C/c3ccccc3)nn12`, the pEC50 was less than 3.70 and the negative-log IC50 (pIC50) was 4.38.
With `CC(=O)OCC1=C2C(OC(=O)C(C)C)CC3(COC(C)=O)OC3/C=C\C3(C)OC3C2OC1=O` (centres undefined), the pEC50 is less than 3.70 and the pIC50 is 4.12.
`O=C1c2ccccc2-c2nnc(-c3ccc(Cl)cc3)cc21`: the pEC50 was less than 4.00 and the negative logarithm of the IC50 (pIC50) was less than 4.00.
In the case of `Cc1cc(-c2ccc(N=Nc3ccc4c(S(=O)(=O)[O-])cc(S(=O)(=O)[O-])c(N)c4c3O)c(C)c2)ccc1N=Nc1ccc2c(S(=O)(=O)[O-])cc(S(=O)(=O)[O-])c(N)c2c1O.[Ga]`, the pEC50 was 5.95 and the pIC50 is 4.41.
Consider `COc1ccc(-c2cc3ccccc3[nH]c2=O)cc1OC`, for which the result was inactive.
Turning to `Cn1c2c(c(=O)n(C)c1=O)CN(Cc1ccccc1)CN2`, the pEC50 was less than 3.70 and the pIC50 is less than 3.70.
Consider `CCOC(=O)C/C(C)=N\NC(=O)c1ccncc1`, for which the pEC50 is less than 3.70 and the pIC50 is less than 3.70.
`Cc1ccc(S(=O)(=O)OC[C@H]2CC=CC[C@H]2COS(=O)(=O)c2ccc(C)cc2)cc1`: the pEC50 was less than 3.70 and the pIC50 was less than 3.70.
In the case of `CN(C)c1ccc2c(c1)C(=O)N(OS(=O)(=O)c1ccccc1)C2=O`, the result was inactive.
Consider `O=c1[nH]c(=O)n(C2CC(O)C(CO)O2)cc1/C=C/Br` (centres undefined), for which the pEC50 was less than 3.12 and the pIC50 was 3.13.
For `CCOC(=O)C(C)(C)Oc1ccc2c(=O)cc(-c3ccc(Cl)cc3)oc2c1`, the pEC50 is less than 4.73 and the pIC50 is less than 4.73.
`CC(C)c1ccc2nc3ccc(C(=O)NCCN(C)C)cn3c(=O)c2c1`: the pEC50 is less than 3.70 and the pIC50 is 4.90.
For `Nc1cc(N)c(N=Nc2ccc(/C=C/c3ccc(N=Nc4c(N)cc(N)cc4C(=O)O)cc3S(=O)(=O)O)c(S(=O)(=O)O)c2)c(C(=O)O)c1` the same measures were less than 3.75 and 3.77.
For the compound `CC1(C)COC(c2cccc(C(O)c3ccc(Cl)cc3)c2)=N1` (centres undefined), the pEC50 was less than 3.70 and the pIC50 was 4.41.
In the case of `COc1cccc2c1C(=N)c1c(O)c3c(c(O)c1C2=O)C[C@@](O)(C(C)=O)C[C@@H]3OC1CC(N)C(O)C(C)O1` (some centres undefined), the pEC50 is less than 6.70 and the pIC50 is 8.20.
In the same order, the values of `CC(C)N(C(=O)C12C3C4C1C1C2C3C41C(O)C(C)(C)C)C(C)C` (centres undefined) are 5.52 and 4.92.
With `CCc1cccc(CC)c1NC(=O)C1=CNC(C)=C(C(=O)Nc2c(CC)cccc2CC)C1c1ccc(O)c(OC)c1` (centres undefined), the pEC50 is less than 4.20 and the pIC50 is 4.31.
For the compound `NC(=O)C(=CNC(=S)Nc1ccc(S(=O)(=O)Nc2ccccn2)cc1)C(N)=O`, the pEC50 was less than 3.70 and the negative logarithm of the IC50 (pIC50) is less than 3.70.
`CC(NC(=O)C(NC(=O)OCc1ccccc1)C(C)C)C(=O)NCC(=O)ON1C(=O)CCC1=O` (stereo not drawn) (Cbz-Val-Ala-Gly-OSu; configuration not given here): the pEC50 is less than 4.00 and the negative-log IC50 (pIC50) was less than 4.00.
As to `CN(/N=C/c1ccccn1)C1=NCCN1`, the pEC50 is less than 3.70 and the pIC50 was less than 3.70.
Regarding `O=S(=O)(O)C(O)CCCC(O)S(=O)(=O)O` (centres undefined), the pEC50 is less than 3.70 and the negative-log IC50 (pIC50) is 4.97.
With `NC(F)(Cc1ccccc1)C(=O)O` (centres undefined), the pEC50 was less than 3.70 and the pIC50 is less than 3.70.
Take `O=c1/c(=C/c2cccc([N+](=O)[O-])c2)sc2nc3ccccc3n12`: the result was inactive.
For `O=C(CC(C(=O)c1ccsc1)c1cccs1)c1cccs1` (centres undefined), the pEC50 is less than 4.66 and the pIC50 was less than 4.66.
Regarding `Cc1cc2c(C(C)C)c(O)c(O)c(C=NCC3CCCN4CCCCC34)c2cc1-c1cc2c(C=NCC3CCCN4CCCCC34)c(O)c(O)c(C(C)C)c2cc1C` (centres undefined), the negative-log EC50 (pEC50) was 5.33 and the negative-log IC50 (pIC50) was 5.18.
Turning to `c1ccc(C2SCc3nc4cc5ccccc5cc4n32)cc1` (centres undefined), the pEC50 is less than 3.70 and the negative-log IC50 (pIC50) is less than 3.70.
As for `CCCCCCc1cc(C(=O)Nc2cccc(C(F)(F)F)c2)nc(N)n1`, the result was inactive.
Consider `C=CCOc1ccc(/C(N=Nc2ccc(C)cc2)=N/NC(=O)c2ccccc2)cc1OC`, for which the pEC50 was less than 3.70 and the pIC50 is 5.00.
For `Cc1cccc(C(C)(C)C)c1NC(=O)C(=O)C(c1cnc2ccccc2n1)[N+](=O)[O-]` (centres undefined) the same measures were less than 3.49 and 3.92.
Regarding `OC(c1ccccc1)C1CC2C=CC1C2` (centres undefined), the outcome was inactive.
Take `CCOC(=O)c1nc2ccc(OC)cc2c2c1Cc1ccccc1-2`: the pEC50 was less than 4.65 and the pIC50 was less than 4.65.
Consider `CCOC(=O)C(C(=O)OCC)C(C(=O)OCC)(C(=O)OCC)C(C(=O)OCC)C(=O)OCC`, for which the outcome was inactive.
Take `COc1ccc(C(=O)/C=C/c2ccc(OCCCCCCCCCCOc3ccc(/C=C/C(=O)c4ccc(OC)c(OC)c4)cc3)cc2)c(OC)c1`: the outcome was inactive.
As for `COc1cccc(C=O)c1[O-].COc1cccc(C=O)c1[O-].[Ni+2]`, the pEC50 was less than 4.30 and the pIC50 was 4.45.
As for `CCC(C)C(=O)c1c(O)c(CC=C(C)C)c2c3c(cc(=O)oc13)C(CC)O2` (centres undefined), the pEC50 is less than 3.70 and the pIC50 was 4.60.
With `C=CCc1c(C(O)CNC(C)C)ccc(OC)c1OCc1ccccc1` (centres undefined), the pEC50 is less than 3.70 and the pIC50 is 4.52.
In the same order, the values of `O=C(O)CCC(=O)NC(c1ccccc1)(c1ccccc1)c1ccccc1` are less than 3.70 and less than 3.70.
For `Cc1ccc(S(=O)(=O)N/N=C2\C=C[C@]3(CC2)C(=O)N(C)c2ccccc23)cc1`, the pEC50 was less than 3.70 and the pIC50 is 3.99.
`CC/C(=C(\CC)c1ccc(OCCCN2CCCCC2C)cc1)c1ccc(OCCCN2CCCCC2C)cc1` (centres undefined): the pEC50 is less than 4.70 and the negative-log IC50 (pIC50) is 5.64.
`CCN(CC)c1ccc2cc(S(=O)(=O)c3ccccc3)c(=O)oc2c1`: the result was inactive.
Consider `CCCCCCCCCCCCCCOP(=O)(O)OCCC=C(c1cc(Cl)c(O)c(C(=O)O)c1)c1cc(Cl)c(O)c(C(=O)O)c1`, for which the pEC50 is less than 3.70 and the negative logarithm of the IC50 (pIC50) was less than 4.00.
As for `Cc1ccc(S(=O)(=O)NNC2Oc3cc4c(cc3C(c3ccccc3O)C2C)OCO4)cc1` (centres undefined), the pEC50 is less than 3.70 and the pIC50 is 4.58.
As to `Cc1ccc(N2C(N)=C(C#N)C(C#N)(C#N)C2c2ccccc2)cc1` (centres undefined), the pEC50 was less than 3.70 and the pIC50 was 5.55.
Turning to `CC(C)C[S+]1C2=C([O-])CC(C)(C)CC2=Nc2ccccc21` (centres undefined), the pEC50 is less than 3.70 and the pIC50 is less than 3.70.
